pEC50: −log10 of the molar value. Like-named read-outs stand apart in the source and are kept apart here.
Tests used:
Assay type in all cases: cell-based
HBV = experiment: Anti-HBV activity in HepG2.2.15 cells (HBV DNA in culture medium by qPCR); details: HepG2.2.15 cells, 6 days treatment, HBV DNA in culture medium quantified by real-time PCR, read-out: EC50
How it was run: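 Secreted HBV DNA was measured by real-time PCR after 6-day compound exposure of HepG2.2.15 cells (2% FBS, 37 °C, re-dosed after 3 days), giving EC50 from 8-point 1:3 series starting at 10 or 1 uM. Cytotoxicity (CC50) run separately at lower cell density, top 100 uM.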

HepG2.2.15 cells = experiment: Cytotoxicity determination in HepG2.2.15 cells (CCK-8 cell viability); details: 6 days treatment, CCK-8 assay, highest concentration 100 uM
How it was run: (§1)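 Viability measured by CCK-8 absorbance (450 nm, 630 nm reference, 2.5 h at 37° C) after six days of treatment, medium and compound renewed on day 3. Top concentration 100 uM, eight threefold dilutions in triplicate; cells plated at 5,000/well in 2% FBS medium; CC50 derived.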

[1] = as above; details: human, 6 days treatment, CCK-8 assay, highest concentration 100 uM
How it was run: as §1

[2] = Hepatitis B virus, HepG2.2.15, 144 h

SMILES | pEC50 (HBV) | CC50 (HepG2.2.15 cells) | pEC50 (HBV; [2]) | CC50 at 6 days [1]
COC(=O)C1=C(CN2CC(F)(F)[C@H]3[C@@H]2CCN3C[C@@H](C)C(=O)O)NC(c2nccs2)=N[C@H]1c1cccc(F)c1C (single isomer, unassigned) [Compound 131B, 3-((cis)-6,6-Difluoro-4-(((S*)-6-(3-fluoro-2-methylphenyl)-5-(methoxycarbonyl)-2-(thiazol-2-yl)-3,6-dihydropyrimidin-4-yl)methyl)hexahydropyrrolo[3,2-b]pyrrol-1(2H)-yl)-2-methylpropanoic acid] | 7.53 | 65600 nM | – | –
CCOC(=O)C1=C(CN2CC(F)(F)C3C2CN(C(C)=O)N3CCC(C)(C)C(=O)O)NC(c2nccs2)=N[C@H]1c1cccc(F)c1C (stereo partly drawn) [Compound 70, 4-(2-acetyl-4-(((S)-5-(ethoxycarbonyl)-6-(3-fluoro-2-methylphenyl)-2-(thiazol-2-yl)-3,6-dihydropyrimidin-4-yl)methyl)-6,6-difluorohexahydropyrrolo[3,2-c]pyrazol-1(2H)-yl)-2,2-dimethylbutanoic acid] | – | – | 8.09 | 27100 nM
CCOC(=O)C1=C(CN2CC(F)(F)[C@H]3[C@@H]2CN(C(C)=O)N3CCC(C)(C)C(=O)O)NC(c2nccs2)=N[C@H]1c1cccc(F)c1C [Compound 70A, 4-((cis)-2-Acetyl-4-(((S)-5-(ethoxycarbonyl)-6-(3-fluoro-2-methylphenyl)-2-(thiazol-2-yl)-3,6-dihydropyrimidin-4-yl)methyl)-6,6-difluorohexahydropyrrolo[3,2-c]pyrazol-1(2H)-yl)-2,2-dimethylbutanoic acid] | 7.46 | – | – | > 50000 nM
CCOC(=O)C1=C(CN2CC(F)(F)[C@H]3[C@@H]2CN(C(C)=O)N3CCC(C)(C)C(=O)O)NC(c2nccs2)=N[C@H]1c1cccc(F)c1C [Compound 70B, 4-((cis)-2-Acetyl-4-(((S)-5-(ethoxycarbonyl)-6-(3-fluoro-2-methylphenyl)-2-(thiazol-2-yl)-3,6-dihydropyrimidin-4-yl)methyl)-6,6-difluorohexahydropyrrolo[3,2-c]pyrazol-1(2H)-yl)-2,2-dimethylbutanoic acid] | 7.80 | > 50000 nM | – | –
CCOC(=O)C1=C(CN2CC(F)(F)C3C2CN(C(C)=O)N3CCC(CC)C(=O)O)NC(c2nccs2)=N[C@H]1c1cccc(F)c1C (stereo partly drawn) [Compound 78] | – | – | 7.31 | 70300 nM
CCOC(=O)C1=C(CN2CC(F)C3C(=O)N(CC(C)(C)C(=O)O)CC32)NC(c2nccs2)=N[C@H]1c1cccc(F)c1C (stereo partly drawn) [Compound 186, 3-((cis)-1-(((S)-5-(ethoxycarbonyl)-6-(3-fluoro-2-methylphenyl)-2-(thiazol-2-yl)-3,6-dihydropyrimidin-4-yl)methyl)-3-fluoro-4-oxohexahydropyrrolo[3,4-b]pyrrol-5(1H)-yl)-2,2-dimethylpropanoic acid] | – | – | 8.05 | 66900 nM
